Source: patent EP1439394A1, “Method and apparatus for etablishing ADME profiles in the early stage of develloppment of active substances” (priority 2002, dated 2004)

Experiments:
[1] = molecular target: HSA (Homo sapiens, UniProt P02768); conditions: standard ligands immobilised on the array; protein not named, HSA per Example 2 / Abb. 2
Excerpt: (§1) Wird SPR als Detektionsmethode eingesetzt, ist es vorteilhaft, zunächst eine Messung des Microarrays ohne Lösung (Luftmessung) durchzuführen und danach eine Messung des Microarrays mit der Pufferlösung durchzuführen, in der anschließend das ADME relevante Biomolekül gelöst wird (Puffermessung). Anschliessend wird die Pufferlösung gegen eine Lösung des ADME relevanten Biomoleküls in demselben Puffer ausgetauscht und nochmals gemessen (Proteinmessung). Die Puffermessungen und die Proteinmessungen werden mittels der Luftmessung normiert und anschließend wird die Differenz zwischen den beiden Minima der Proteinmessung und der Puffermessung ermittelt.
(§2) Die so ermittelte Verschiebung (in nm) zwischen den beiden (ggf. normierten) Messungen ist ein Maß für die Bindungsstärke zwischen den immobilisierten Liganden und dem ADME relevanten Biomolekül (s. Beispiel 1).
Anschließend wurde der Chip je dreifach in 1. Methanol/1%TFA, 2. H2O/0,1% TFA und 3. H2O/0,02M HOAc gewaschen sowie unter Stickstoffstrom getrocknet.
Alle Verbindungen weisen eine Carboxy-Funktionalität auf, die mit einem Amin umgesetzt wurden, das endständig eine Thiolgruppe zur Anbindung an die Maleimid-Kopfgruppe des Ankers trägt.
Die Wirkstoffvorstufen, die so auf die Oberfläche gebracht werden, sind in einer 40 µM Lösung aus 0,2 M Phosphatpuffer (Pi), 5 mM EDTA und 20% (v/v) EG, pH 7.0, gelöst. Das Pinning Tool setzt ca. 10 nl pro Spot ab, so daß in jedem Spot ein hoher Überschuß des Wirkstoffvorstufen-Tag Konjugates gegenüber der oberflächengebundenen Maleimid-Gruppe gewährleistet wird und somit eine vollständige Belegung der Maleimid-Gruppen erreicht werden kann. In den freien Bereichen wurden die Maleimid-Gruppen anschließend durch Inkubation des Chips in 0,2 M Pi, pH 7.0, 10mM Mesh für 30 min abgesättigt. Danach wurde je dreimal mit 1. H2O/0,02M HOAc, 2. MeOH/H2O und 3. 2-Propanol gewaschen sowie unter Stickstoffstrom getrocknet.
Die Verschiebung der Wellenlänge wurde nach 120 min aufgezeichnet. Durch die eindeutige Zuordnung der (x,y)-Koordinate zu einer bestimmten Verbindung ist diese eindeutig identifizierbar. Wirkstoffvorstufen mit hohen Verschiebungswerten sind kritisch im Hinblick auf die weitere Wirkstoffentwicklung.
Das Festphasenscreening wurde durchgeführt wie in Beispiel 1 beschrieben.

[2] = molecular target: CYP3A4 (Homo sapiens, UniProt P08684); conditions: standard ligands immobilised on the array; CYP3A4 per Example 3 / Abb. 3
Sequence of CYP3A4 (P08684 whole entry): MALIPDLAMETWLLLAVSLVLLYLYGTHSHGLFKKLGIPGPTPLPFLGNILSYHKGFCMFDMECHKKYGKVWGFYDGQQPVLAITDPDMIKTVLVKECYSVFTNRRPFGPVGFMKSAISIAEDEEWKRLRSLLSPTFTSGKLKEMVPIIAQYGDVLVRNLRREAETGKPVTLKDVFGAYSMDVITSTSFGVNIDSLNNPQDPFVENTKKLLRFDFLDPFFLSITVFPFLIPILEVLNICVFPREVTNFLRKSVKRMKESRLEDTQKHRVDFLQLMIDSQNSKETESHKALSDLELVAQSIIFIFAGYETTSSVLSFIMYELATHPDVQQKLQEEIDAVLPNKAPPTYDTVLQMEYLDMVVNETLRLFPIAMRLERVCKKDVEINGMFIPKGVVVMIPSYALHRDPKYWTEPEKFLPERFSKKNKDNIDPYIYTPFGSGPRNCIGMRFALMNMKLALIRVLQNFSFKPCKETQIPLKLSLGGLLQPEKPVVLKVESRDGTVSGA
Excerpt: as §1, §2
Die Verschiebung der Wellenlänge wurde nach 120 min aufgezeichnet. Durch die eindeutige Zuordnung der (x,y)-Koordinate zu einer bestimmten Verbindung ist diese eindeutig identifizierbar.
3 gezeigten Standardliganden und deren Festphasenscreening gegen CYP3A4 eine Klassifizierung in sehr schwach (<1,6 nm), schwach (1,6-3,2 nm), mittel (3,2-4,8 nm), stark (4,8-6,4 nm) und sehr stark (>6,4 nm) durchgeführt. Anhand der bekannten Metabolismuseigenschaften der Standardliganden ist eine Zuordnung dieser ADME Eigenschaft für nicht bekannte Wirkstoffvorstufen möglich.

Sequence of HSA (P02768 25-609): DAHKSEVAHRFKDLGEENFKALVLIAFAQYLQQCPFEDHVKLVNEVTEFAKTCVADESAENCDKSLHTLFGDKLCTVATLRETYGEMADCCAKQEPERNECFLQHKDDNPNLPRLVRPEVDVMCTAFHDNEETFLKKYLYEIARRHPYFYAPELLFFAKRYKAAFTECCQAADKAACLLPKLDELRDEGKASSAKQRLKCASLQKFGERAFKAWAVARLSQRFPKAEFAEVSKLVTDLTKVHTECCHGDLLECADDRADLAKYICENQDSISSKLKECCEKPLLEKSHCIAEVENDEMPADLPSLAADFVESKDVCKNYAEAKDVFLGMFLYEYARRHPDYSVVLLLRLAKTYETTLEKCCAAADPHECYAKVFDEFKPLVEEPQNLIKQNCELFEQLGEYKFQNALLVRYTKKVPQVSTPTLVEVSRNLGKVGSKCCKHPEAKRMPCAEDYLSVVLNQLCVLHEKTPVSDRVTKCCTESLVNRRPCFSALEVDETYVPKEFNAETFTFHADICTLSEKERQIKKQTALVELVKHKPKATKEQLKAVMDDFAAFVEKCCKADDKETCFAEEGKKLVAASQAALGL

Compound	Klassifizierung der Standardliganden für die Bestimmung von Distributionsparametern [1]	Klassifizierung der Standardliganden für die Bestimmung von Metabolismusparametern [2]
C=C[C@H]1C[N@@]2CC[C@H]1C[C@@H]2[C@@H](O)c1ccnc2ccc(OC)cc12 [Chinidin]	schwach (schwach (0,7-1,4 nm))	–
C=C[C@H]1C[N@@]2CC[C@H]1C[C@H]2[C@H](O)c1ccnc2ccc(OC)cc12 [Chinin]	schwach (schwach (0,7-1,4 nm))	–
CNCCCN1c2ccccc2CCc2ccccc21 [Desimpramin]	mittel (mittel (1,4-2,1 nm))	schwach (schwach (1,6-3,2 nm))
CNCCC=C1c2ccccc2CCc2ccccc21 [Nortriptylin]	stark (stark (2,1-2,8 nm))	schwach (schwach (1,6-3,2 nm))
CC(=O)[C@H]1CC[C@H]2[C@@H]3CCC4=CC(=O)CC[C@]4(C)[C@H]3CC[C@]12C [Progesteron]	–	sehr stark (sehr stark (>6,4 nm))
